Assays:
Format in all cases: in vivo
Alopecurus myosuroides [1] = test: Pre-emergence herbicidal activity, glasshouse pot test; details: pre-emergence spray, rate 1000 g/ha, evaluated after 13 days, scale 0-5
Procedure, shortened: (§1)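 Glasshouse conditions were 24/16 °C day/night with 14 h light and 65% humidity throughout. Soil was sprayed before emergence, one day after sowing, using an acetone/water (50:50) formulation with 0.5% Tween 20; injury was scored 0–5 after 13 days.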

Amaranthus retroflexus [2] = test: as above; details: pre-emergence spray, rate 1000 g/ha, evaluated after 13 days, scale 0-5
Procedure, shortened: as §1

Echinochloa crus-galli [3] = test: as above; details: pre-emergence spray, rate 1000 g/ha, evaluated after 13 days, scale 0-5
Procedure, shortened: as §1

Setaria faberi [4] = test: as above; details: pre-emergence spray, rate 1000 g/ha, evaluated after 13 days, scale 0-5
Procedure, shortened: as §1

Solanum nigrum [5] = test: as above; details: pre-emergence spray, rate 1000 g/ha, evaluated after 13 days, scale 0-5
Procedure, shortened: as §1

zea mays [6] = test: as above; details: pre-emergence spray, rate 1000 g/ha, evaluated after 13 days, scale 0-5
Procedure, shortened: as §1

Alopecurus myosuroides [7] = test: Post-emergence herbicidal activity, glasshouse pot test; set-up: key: 0 = no damage to plant, 5 = total damage to plant; details: Application post-emergence, rate 1000 g/ha, evaluated after 13 days
Procedure, shortened: (§2)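 Test solution: technical active ingredient in acetone/water (50:50) containing 0.5% Tween 20, applied as an aqueous spray to 8-day-old plants. Evaluation at 13 days, 0–5 damage scale.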

Amaranthus retroflexus [8] = test: as above; set-up: key: 0 = no damage to plant, 5 = total damage to plant; details: Application post-emergence, rate 1000 g/ha, evaluated after 13 days
Procedure, shortened: as §2

Echinochloa crus-galli [9] = test: as above; set-up: key: 0 = no damage to plant, 5 = total damage to plant; details: Application post-emergence, rate 1000 g/ha, evaluated after 13 days
Procedure, shortened: as §2

Setaria faberi [10] = test: as above; set-up: key: 0 = no damage to plant, 5 = total damage to plant; details: Application post-emergence, rate 1000 g/ha, evaluated after 13 days
Procedure, shortened: as §2

zea mays [11] = test: as above; set-up: key: 0 = no damage to plant, 5 = total damage to plant; details: Application post-emergence, rate 1000 g/ha, evaluated after 13 days
Procedure, shortened: as §2

Solanum nigrum [12] = test: as above; details: Application post-emergence, rate 1000 g/ha, evaluated after 13 days
Procedure: Seeds of a variety of test species were sown in standard soil in pots. After 8 days cultivation (post-emergence) under controlled conditions in a glasshouse (at 24/16° C., day/night; 14 hours light; 65% humidity), the plants were sprayed with an aqueous spray solution derived from the formulation of the technical active ingredient in acetone/water (50:50) solution containing 0.5% Tween 20 (polyoxyethelyene sorbitan monolaurate, CAS RN 9005-64-5). The test plants were then grown in a glasshouse under controlled conditions (at 24/16° C., day/night; 14 hours light; 65% humidity) and watered twice daily. After 13 days, the test was evaluated (5=total damage to plant; 0=no damage to plant).
ABUTH=Abutilon theophrasti; SOLNI=Solanum nigrum; AMARE=Amaranthus retroflexus; SETFA=Setaria faberi; ALOMY=Alopecurus myosuroides; ECHCG=Echinochloa crus-galli, ZEAMX=zea mays.

Abutilon theophrasti [13] = test: Pre-emergence herbicidal activity, glasshouse pot test; details: pre-emergence spray, rate 1000 g/ha, evaluated after 13 days, scale 0-5
Procedure, shortened: as §1

Abutilon theophrasti [14] = test: Post-emergence herbicidal activity, glasshouse pot test; set-up: key: 0 = no damage to plant, 5 = total damage to plant; details: Application post-emergence, rate 1000 g/ha, evaluated after 13 days
Procedure, shortened: as §2

| Structure (SMILES) | ALOMY damage score, application pre-emergence (Alopecurus myosuroides [1]) | AMARE damage score, application pre-emergence (Amaranthus retroflexus [2]) | ECHCG damage score, application pre-emergence (Echinochloa crus-galli [3]) | SETFA damage score, application pre-emergence (Setaria faberi [4]) | SOLNI damage score, application pre-emergence (Solanum nigrum [5]) | ZEAMX damage score, application pre-emergence (zea mays [6]) | ALOMY herbicidal damage score (Alopecurus myosuroides [7]) | AMARE herbicidal damage score (Amaranthus retroflexus [8]) | ECHCG herbicidal damage score (Echinochloa crus-galli [9]) | SETFA herbicidal damage score (Setaria faberi [10]) | ZEAMX herbicidal damage score (zea mays [11]) | SOLNI herbicidal damage score (Solanum nigrum [12]) | ABUTH damage score, application pre-emergence (Abutilon theophrasti [13]) | ABUTH herbicidal damage score (Abutilon theophrasti [14]) |
| --- | --- | --- | --- | --- | --- | --- | --- | --- | --- | --- | --- | --- | --- | --- |
| CC1=C(Cl)C(=O)N(c2ccc(Cl)cn2)C1O (stereo not drawn) [AF65] | 2 | 5 | 1 | 2 | 4 | 0 | 4 | 5 | 4 | 5 | 1 | 5 |  |  |
| CC1=C(Cl)C(=O)N(c2cc(Cl)ccn2)C1O (stereo not drawn) [AF66] | 2 | 5 | 2 | 3 | 5 | 0 | 4 | 5 | 4 | 5 | 2 | 5 |  |  |
| CC1=C(Cl)C(=O)N(c2ccc(F)cn2)C1O (stereo not drawn) [AF67] | 2 | 5 | 1 | 3 | 3 | 0 | 3 | 5 | 4 | 4 | 1 | 5 |  |  |
| CCCC1=C(Cl)C(=O)N(c2cc(C(C)(C)C#N)ncn2)C1O (stereo not drawn) [CF22] | 2 | 5 | 5 | 4 |  | 2 | 5 | 5 | 5 | 5 | 3 |  | 5 | 5 |
| CC1=C(Br)C(=O)N(c2cc(C(F)(F)F)ncn2)C1O (stereo not drawn) [CG1] | 3 | 1 | 5 | 4 |  | 0 | 5 | 2 | 5 | 5 | 3 |  | 4 | 4 |
| CCC1=C(Br)C(=O)N(c2cc(C(C)(C)C#N)ncn2)C1O (stereo not drawn) [CG2] | 2 | 4 | 4 | 3 |  | 2 | 5 | 5 | 5 | 5 | 5 |  | 5 | 5 |
| CC1=C(Br)C(=O)N(c2cc(C(C)(C)C#N)ncn2)C1O (stereo not drawn) [CG3] | 4 | 5 | 4 | 5 |  | 3 | 5 | 5 | 5 | 5 | 3 |  | 4 | 5 |
| COC1=C(OC)C(O)N(c2cc(C(F)(F)F)ncn2)C1=O (stereo not drawn) [CK4] | 4 | 4 | 4 | 5 |  | 3 | 5 | 3 | 5 | 5 | 4 |  | 5 | 5 |
| CC1=C(Cl)C(=O)N(c2nccc(C(F)(F)F)n2)C1O (stereo not drawn) [DF1] | 4 | 5 | 4 | 4 |  | 2 | 4 | 5 | 5 | 5 | 4 |  | 4 | 5 |
| CC1=C(Cl)C(=O)N(c2nccc(C(C)(C)C)n2)C1O (stereo not drawn) [DF2] | 4 | 5 | 5 | 5 |  | 2 | 5 | 5 | 5 | 5 | 1 |  | 5 | 5 |
| CCOc1nc(N2C(=O)C(Cl)=C(C)C2O)ncc1C#N (stereo not drawn) [DF4] | 0 | 0 | 0 | 0 |  | 0 | 0 | 0 | 0 | 0 | 0 |  | 0 | 0 |
| CC1=C(Cl)C(=O)N(c2nccc(C(C)(C)C#N)n2)C1O (stereo not drawn) [DF5] | 4 | 5 | 5 | 4 |  | 3 | 4 | 5 | 5 | 4 | 3 |  | 5 | 5 |
| CC1=C(Cl)C(=O)N(c2ncc(C#N)c(C(C)(C)C)n2)C1O (stereo not drawn) [DF6] | 3 | 5 | 4 | 4 |  | 2 | 4 | 5 | 5 | 5 | 1 |  | 2 | 5 |
| COC1=C(C)C(O)N(c2nccc(C(C)(C)C)n2)C1=O (stereo not drawn) [DI1] | 3 | 5 | 5 | 5 |  | 2 | 5 | 5 | 5 | 5 | 1 |  | 5 | 5 |
| CCOC(=O)c1cnc(N2C(=O)C(OC)=C(C)C2O)nc1C(F)(F)F (stereo not drawn) [DI2] | 4 | 5 | 5 | 5 |  | 3 | 4 | 5 | 5 | 5 | 4 |  | 5 | 5 |

Reference: patent US9963445B2, “Chemical compounds” (SYNGENTA PARTICIPATIONS AG, priority 2013, dated 2018)
